Results as given in US11241438B2, “Formulations of an AXL/MER inhibitor” (Incyte Corporation, priority 2018, dated 2022).
Counter-ions that a name gives are not always drawn. Like-named read-outs stand apart in the source and are kept apart here.

What was measured:
phosphor-Axl [1] = molecular target: T1, phosphor-Axl (Homo sapiens (Human), UniProt P30530); test: TAM enzymatic assay (HTRF), Axl; assay type: biochemical
Description: Axl Autophosphorylation Assay
Autophosphorylation of Axl was carried out by incubating the recombinant Axl protein (Life Technologies, PV4275) in buffer containing 50 mM Tris, pH7.5, 0.2 mg/ml Axl, 5 mM ATP, 20 mM MgCl2 and 2 mM DTT at room temperature for 1 hour.
(§1) The kinase assay buffer contained 50 mM HEPES, pH7.5, 10 mM MgCl2, 1 mM EGTA, 0.01% NP-40 and 2 mM DTT. 0.1 ul test compounds dissolved in DMSO were transferred from compound plates to white 384-well assay plates (Greiner […] plates). The final concentration of DMSO was 1.25%. Enzyme solutions of 5.1 nM phosphor-Axl, or 0.0625 nM c-Mer (Carna Biosciences, 08-108), or 0.366 nM Tyro3 (Life Technologies, PR7480A) were prepared in assay buffer. A 1 mM stock solution of peptide substrate Biotin-[…]-amide SEQ ID NO: 1 (Quality Controlled Biochemicals, MA) dissolved in DMSO was diluted to 1 uM in assay buffer containing 2000 uM ATP. 4 ul enzyme solution (or assay buffer for the enzyme blank) was added to the appropriate wells in each plate, and then 4 ul/well substrate solution was added to initiate the reaction. […] The plate was incubated for 1 h at room temperature, and HTRF (homogenous time resolved fluorescence) signal was measured on a PHERAstar FS plate reader (BMG labtech). Percentage of inhibition was calculated for each concentration and IC50 value was generated from curve fitting with GraphPad Prism software.

c-Mer [2] = molecular target: T2, c-Mer (Homo sapiens (Human), UniProt Q12866); test: TAM enzymatic assay (HTRF), Mer; assay type: biochemical
Description: as §1, with “reaction. The plate was protected from light and incubated at room temperature for 60 min.” for “reaction.”

[3] = Solubility study in aqueous surfactant solutions; assay type: physicochemical; details: thermodynamic from solid, 37° C., after 60 minutes stirring, theoretical maximum 0.20 mg/ml, read-out: Concentration (solubility)
Description: The solubility of Compound I maleate was determined in aqueous solution in the presence of several surfactants at 37° C. The surfactants included sodium lauryl sulfate (SLS), poloxamer 188, and poloxamer 407 at a concentration of 0.2% (w/v) in water; a vessel without surfactant was included as a control. The experiment was performed in a Distek 2100 dissolution bath using 500 ml of media stirred at 100 RPM (USP type II dissolution apparatus). 100 mg of drug substance (free base equivalent) was added to the media to give a theoretical maximum concentration of 0.20 mg/ml. 5 ml samples were taken and filtered with a 0.45 micron GHP filter prior to analysis by HPLC. Listed below are the observed concentrations for the samples after 60 minutes of stirring time.

phosphor-Axl [4] = molecular target: T1, phosphor-Axl; details: data disclosed in U.S. Pat. No. 9,981,975; cited from earlier work
c-Mer [5] = molecular target: T2, c-Mer; details: data disclosed in U.S. Pat. No. 9,981,975; cited from earlier work

T2 sequence (Q12866 21-999): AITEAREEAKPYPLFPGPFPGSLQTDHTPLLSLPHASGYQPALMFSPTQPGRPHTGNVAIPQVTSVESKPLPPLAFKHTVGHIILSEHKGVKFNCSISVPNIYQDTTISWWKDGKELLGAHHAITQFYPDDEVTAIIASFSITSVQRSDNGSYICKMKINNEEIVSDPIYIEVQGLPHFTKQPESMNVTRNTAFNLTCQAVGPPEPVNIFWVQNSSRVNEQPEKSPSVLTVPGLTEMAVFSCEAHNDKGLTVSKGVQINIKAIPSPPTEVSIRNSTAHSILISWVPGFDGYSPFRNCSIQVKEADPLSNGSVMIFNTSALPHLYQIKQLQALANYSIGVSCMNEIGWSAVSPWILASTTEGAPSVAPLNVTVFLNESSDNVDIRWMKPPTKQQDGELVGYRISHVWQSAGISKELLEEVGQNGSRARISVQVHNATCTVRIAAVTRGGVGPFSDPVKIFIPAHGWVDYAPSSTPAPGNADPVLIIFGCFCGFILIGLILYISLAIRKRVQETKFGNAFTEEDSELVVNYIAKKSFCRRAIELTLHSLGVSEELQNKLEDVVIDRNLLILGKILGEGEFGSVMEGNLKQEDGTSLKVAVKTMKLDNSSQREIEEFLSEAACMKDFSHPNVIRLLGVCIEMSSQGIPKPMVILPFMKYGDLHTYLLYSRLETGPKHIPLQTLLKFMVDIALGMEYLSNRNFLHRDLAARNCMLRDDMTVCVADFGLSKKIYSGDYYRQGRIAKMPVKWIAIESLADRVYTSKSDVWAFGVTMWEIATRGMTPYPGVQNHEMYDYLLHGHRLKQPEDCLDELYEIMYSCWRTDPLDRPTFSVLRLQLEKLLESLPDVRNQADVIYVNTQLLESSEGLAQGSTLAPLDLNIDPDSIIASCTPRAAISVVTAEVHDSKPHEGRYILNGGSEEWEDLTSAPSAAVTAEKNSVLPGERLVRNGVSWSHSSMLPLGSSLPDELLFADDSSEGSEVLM
T1 sequence (P30530 26-894): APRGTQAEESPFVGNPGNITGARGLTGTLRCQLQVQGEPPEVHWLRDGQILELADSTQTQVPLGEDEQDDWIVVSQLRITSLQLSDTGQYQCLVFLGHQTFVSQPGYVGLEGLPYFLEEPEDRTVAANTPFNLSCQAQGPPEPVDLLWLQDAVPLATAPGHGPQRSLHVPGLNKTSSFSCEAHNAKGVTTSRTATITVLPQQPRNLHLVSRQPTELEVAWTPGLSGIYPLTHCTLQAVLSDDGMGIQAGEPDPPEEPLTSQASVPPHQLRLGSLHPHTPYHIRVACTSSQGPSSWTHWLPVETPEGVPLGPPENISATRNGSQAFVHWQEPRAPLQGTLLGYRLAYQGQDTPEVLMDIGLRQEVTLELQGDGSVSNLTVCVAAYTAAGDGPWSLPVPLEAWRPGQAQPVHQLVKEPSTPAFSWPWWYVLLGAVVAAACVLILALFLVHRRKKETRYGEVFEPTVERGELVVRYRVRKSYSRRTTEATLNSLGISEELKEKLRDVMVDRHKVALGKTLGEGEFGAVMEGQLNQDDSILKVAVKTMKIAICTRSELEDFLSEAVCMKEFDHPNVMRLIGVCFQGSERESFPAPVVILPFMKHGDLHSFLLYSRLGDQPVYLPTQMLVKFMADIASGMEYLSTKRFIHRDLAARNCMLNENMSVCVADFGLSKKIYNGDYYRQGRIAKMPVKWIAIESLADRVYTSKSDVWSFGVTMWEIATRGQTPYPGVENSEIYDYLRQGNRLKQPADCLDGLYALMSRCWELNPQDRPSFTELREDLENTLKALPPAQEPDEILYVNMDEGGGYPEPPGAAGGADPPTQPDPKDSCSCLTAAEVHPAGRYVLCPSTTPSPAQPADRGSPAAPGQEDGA

CC(C)C(=O)N1CCC(c2cc(-c3ccc(NC(=O)c4cn(C(C)C)c(=O)n(-c5ccccn5)c4=O)cc3)c3c(N)ncnn23)CC1.O=C(O)/C=C\C(=O)O [Compound I maleate, N-(4-(4-amino-7-(1-isobutyrylpiperidin-4-yl)pyrrolo[2,1-f][1,2,4]triazin-5-yl)phenyl)-1-isopropyl-2,4-dioxo-3-(pyridin-2-yl)-1,2,3,4-tetrahydropyrimidine-5-carboxamide maleate]
IC50 (phosphor-Axl [1]): < 5 nM | IC50 (c-Mer [2]): < 5 nM | solubility at 60 min ([3]; 0.2% (w/v) poloxamer 188 in water, aqueous with cosolvent or surfactant or cyclodextrin, 0.2% Poloxamer 188 in water): 18 µg/mL | solubility at 60 min ([3]; 0.2% (w/v) poloxamer 407 in water, aqueous with cosolvent or surfactant or cyclodextrin, 0.2% Poloxamer 407 in water): 9 µg/mL | solubility at 60 min ([3]; 0.2% (w/v) sodium lauryl sulfate in water, aqueous with cosolvent or surfactant or cyclodextrin, 0.2% SLS in water): > 200 µg/mL | solubility at 60 min ([3]; water without surfactant (control), water (no surfactant)): 7 µg/mL

CC(C)C(=O)N1CCC(c2cc(-c3ccc(NC(=O)c4cn(C(C)C)c(=O)n(-c5ccccn5)c4=O)cc3)c3c(N)ncnn23)CC1 [Compound I trifluoroacetic acid salt]
IC50 (phosphor-Axl [4]): < 5 nM | IC50 (c-Mer [5]): < 5 nM
